The record followed here is patent US20260070945A1, “MACROCYCLIC IMMUNOMODULATORS” (Bristol-Myers Squibb Company, priority 2022, published 2026).

As a reminder, the IC50 is the point on the concentration scale where inhibition reaches its midpoint.

*1 amine or outer side, *2 acyl side, *3 side chain or, on linkers, in order; H or OH if unused. Where a SMILES comes first, the peptide text is derived from it. Bridges are numbered along the chain shown (N, C = ends). [ ]: non-standard residue; d: D form. The star is where a group is joined. ξ: configuration not given here. Phe(3-CF3) = N[C@@H](Cc1cccc(C(F)(F)F)c1)C(=O)O; Phe(4-COOH) = N[C@@H](Cc1ccc(C(=O)O)cc1)C(=O)O; Bip = N[C@@H](Cc1ccc(-c2ccccc2)cc1)C(=O)O; Phe(3-Me) = Cc1cccc(C[C@H](N)C(=O)O)c1; γGlu = O=C(O)[C@H](CCC(=O)[*:2])N[*:1]; NH(CH2)12COOH = O=C(O)CCCCCCCCCCCCN*; Val(3-OH) = CC(C)(O)[C@H](N)C(=O)O; 4Pal = N[C@@H](Cc1ccncc1)C(=O)O; 3Thi = N[C@@H](Cc1ccsc1)C(=O)O; Cha = N[C@@H](CC1CCCCC1)C(=O)O; Cit = NC(=O)NCCC[C@H](N)C(=O)O; Ile(3ξ) = CCC(C)[C@H](N)C(=O)O; Thr(3ξ) = CC(O)[C@H](N)C(=O)O; 12Ado = NCCCCCCCCCCCC(=O)O; Carboxymethyl = O=C(O)C*; NMeA = CN[C@@H](C)C(=O)O; Orn = NCCC[C@H](N)C(=O)O; Aun = NCCCCCCCCCCC(=O)O; Dab = NCC[C@H](N)C(=O)O; AEEA = NCCOCCOCC(=O)O

For the first test, the target named is T1, PD-1/PD-L1 interaction (PE-labeled human PD-L1-Ig binding to Jurkat cell line over-expressing human PD-1) (Homo sapiens, UniProt Q15116).
T1 construct: expressed in transfected cells; host or cells: Jurkat
T1 sequence (Q15116 25-288): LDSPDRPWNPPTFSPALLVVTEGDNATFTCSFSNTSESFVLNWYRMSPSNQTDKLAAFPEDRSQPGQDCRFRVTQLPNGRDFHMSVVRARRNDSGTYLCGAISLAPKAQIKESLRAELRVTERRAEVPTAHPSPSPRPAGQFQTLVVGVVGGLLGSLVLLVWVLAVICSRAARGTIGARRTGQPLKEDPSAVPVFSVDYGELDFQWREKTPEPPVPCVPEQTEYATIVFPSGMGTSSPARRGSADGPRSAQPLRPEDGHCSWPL
The test can be described thus: Jurkat-PD-1 Cell Binding High-Content Screening Assay (CBA). The note with it: Jurkat-hPD-1 cells, PE-labeled PD-L1-Ig 20 nM final; read-out: Jurkat HPD1 PDL1 IC50. The procedure, abridged: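 Cells 8×10^3/well, DMEM + 10% FCS; cpd 2 h, 37 °C; PE–PD-L1-Ig 20 nM final, 1 h; PFA fix + Hoechst 33342, 3× dPBS wash; high-content imager.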
With `CC(C)C[C@@H]1NC(=O)[C@H](Cc2c[nH]c3ccccc23)NC(=O)[C@H](CC(=O)O)NC(=O)[C@H](Cc2ccc(C(=O)O)cc2)NC(=O)[C@H](Cc2ccc(OCC(=O)O)cc2)NC(=O)CSC[C@@H](C(=O)NCCOCCOCC(=O)NCCCCCCCCCCC(=O)O)NC(=O)[C@H](CCC(=O)O)NC(=O)[C@H](C(C)(C)O)NC(=O)[C@H](CC2CCCCC2)NC(=O)[C@H](CCN)NC(=O)[C@@H](CC(C)C)NC(=O)[C@H](C)N(C)C(=O)[C@H](C(C)C)NC(=O)[C@H](Cc2ccc(-c3ccccc3)cc2)NC1=O` [Example 1114] ({CH2CO}-Y(Carboxymethyl)[Phe(4-COOH)]DWL[Bip]V[NMeA][dL][Dab][Cha][Val(3-OH)]EC[AEEA][Aun]-OH; thioether N-14), the IC50 worked out at 43.7 nM.

In the case of `CC(C)C[C@@H]1NC(=O)[C@H](Cc2c[nH]c3ccccc23)NC(=O)[C@H](CC(=O)O)NC(=O)[C@H](Cc2ccncc2)NC(=O)[C@H](Cc2ccc(OCC(=O)O)cc2)NC(=O)CSC[C@@H](C(=O)NCCOCCOCC(=O)N[C@@H](CCCNC(N)=O)C(=O)NCCCCCCCCCCC(=O)O)NC(=O)[C@H](CCCNC(N)=O)NC(=O)[C@H](C(C)C)NC(=O)[C@H](CC2CCCCC2)NC(=O)[C@H](CCN)NC(=O)[C@@H](CC(C)C)NC(=O)[C@H](C)N(C)C(=O)[C@H](C(C)C)NC(=O)[C@H](Cc2ccc(-c3ccccc3)cc2)NC1=O` [Example 2174] ({CH2CO}-Y(Carboxymethyl)[4Pal]DWL[Bip]V[NMeA][dL][Dab][Cha]V[Cit]C[AEEA][Cit][Aun]-OH; thioether N-14), the IC50 was 16.4 nM.

As for `CCC(C)[C@@H]1NC(=O)[C@H](Cc2ccc(-c3ccccc3)cc2)NC(=O)[C@H](C(C)C)NC(=O)[C@H](Cc2c[nH]c3ccccc23)NC(=O)[C@H](CC(=O)O)NC(=O)[C@H](Cc2ccc(OCC(=O)O)cc2)NC(=O)[C@H](C(C)O)NC(=O)CSC[C@@H](C(=O)N[C@@H](C)C(=O)NCCOCCOCC(=O)N[C@@H](CCC(=O)NCCOCCOCC(=O)N[C@@H](CCC(=O)NCCOCCOCC(=O)N[C@@H](CCCN)C(=O)NCCCCCCCCCCCC(=O)O)C(=O)O)C(=O)O)NC(=O)[C@H](C(C)O)NC(=O)[C@H](C(C)C)NC(=O)[C@H](CC2CCCCC2)NC(=O)[C@H](CCN)NC(=O)[C@@H](CC(C)C)NC(=O)[C@H](C)N(C)C1=O` (stereo partly drawn) [Example 2010] ({CH2CO}-[Thr(3ξ)]Y(Carboxymethyl)DWV[Bip][Ile(3ξ)][NMeA][dL][Dab][Cha]V[Thr(3ξ)]CA[AEEA][γGlu][AEEA][γGlu][AEEA][Orn][12Ado]-OH; thioether N-14), the IC50 turned out to be 34.8 nM.

`Cc1cccc(C[C@@H]2NC(=O)[C@H](CC(=O)O)NC(=O)[C@H](Cc3ccc(OCC(=O)O)cc3)NC(=O)[C@H](C(C)O)NC(=O)CSC[C@@H](C(=O)N[C@@H](CCN)C(=O)NCCOCCOCC(=O)NCCCCCCCCCCC(=O)O)NC(=O)[C@H](CCC(=O)O)NC(=O)[C@H](C(C)C)NC(=O)[C@H](CC3CCCCC3)NC(=O)[C@H](CCN)NC(=O)[C@@H](CC(C)C)NC(=O)[C@H](C)N(C)C(=O)[C@H](Cc3ccc(OCC(=O)O)cc3)NC(=O)[C@H](Cc3ccc(-c4ccccc4)cc3)NC(=O)[C@H](Cc3ccc(C(=O)O)cc3)NC2=O)c1` (stereo partly drawn) [Example 2481] ({CH2CO}-[Thr(3ξ)]Y(Carboxymethyl)D[Phe(3-Me)][Phe(4-COOH)][Bip]Y(Carboxymethyl)[NMeA][dL][Dab][Cha]VEC[Dab][AEEA][Aun]-OH; thioether N-14): the IC50 was found to be 14.6 nM.

`CC(=O)NCCCC[C@@H]1NC(=O)[C@H](C(C)C)NC(=O)[C@H](CC2CCCCC2)NC(=O)[C@H](CCN)NC(=O)[C@@H](CC(C)C)NC(=O)[C@H](C)N(C)C(=O)[C@H](CCC(N)=O)NC(=O)[C@H](Cc2ccc(-c3ccccc3)cc2)NC(=O)[C@H](C(C)C)NC(=O)[C@H](Cc2cccc(C)c2)NC(=O)[C@H](CC(=O)O)NC(=O)[C@H](Cc2ccc(OCC(=O)O)cc2)NC(=O)[C@H](Cc2ccc(OCC(=O)O)cc2)NC(=O)CSC[C@@H](C(=O)N[C@@H](CCN)C(=O)NCCCCCCCCCCC(=O)O)NC1=O` [Example 2220] ({CH2CO}-Y(Carboxymethyl)Y(Carboxymethyl)D[Phe(3-Me)]V[Bip]Q[NMeA][dL][Dab][Cha]VK(Ac)C[Dab][Aun]-OH; thioether N-14): the IC50 came out at 10.1 nM.

Turning to `CCC(C)[C@@H]1NC(=O)[C@H](Cc2ccc(-c3ccccc3)cc2)NC(=O)[C@H](C(C)C)NC(=O)[C@H](Cc2c[nH]c3ccccc23)NC(=O)[C@H](CC(=O)O)NC(=O)[C@H](Cc2ccc(OCC(=O)O)cc2)NC(=O)[C@H](C(C)O)NC(=O)CSC[C@@H](C(=O)N[C@@H](CCCN)C(=O)N[C@@H](CO)C(=O)NCCCCCCCCCCCC(=O)O)NC(=O)[C@H](CCCN)NC(=O)[C@H](C(C)C)NC(=O)[C@H](CC2CCCCC2)NC(=O)[C@H](CCN)NC(=O)[C@@H](CC(C)C)NC(=O)[C@H](C)N(C)C1=O` (stereo partly drawn) [Example 2408] ({CH2CO}-[Thr(3ξ)]Y(Carboxymethyl)DWV[Bip][Ile(3ξ)][NMeA][dL][Dab][Cha]V[Orn]C[Orn]S[12Ado]-OH; thioether N-14), the IC50 came to 228 nM.

For the compound `CC(C)C[C@H]1NC(=O)[C@H](C)N(C)C(=O)[C@H](Cc2ccc(OCC(=O)O)cc2)NC(=O)[C@H](Cc2ccc(-c3ccccc3)cc2)NC(=O)[C@H](Cc2ccc(OCC(=O)O)cc2)NC(=O)[C@H](Cc2c[nH]c3ccccc23)NC(=O)[C@H](CC(=O)O)NC(=O)[C@H](Cc2ccc(OCC(=O)O)cc2)NC(=O)[C@H]([C@@H](C)O)NC(=O)CSC[C@@H](C(=O)N[C@@H](CCN)C(=O)NCCOCCOCC(=O)NCCCCCCCCCCC(=O)O)NC(=O)[C@H](CCC(=O)O)NC(=O)[C@H](C(C)C)NC(=O)[C@H](CC2CCCCC2)NC(=O)[C@H](CC(N)=O)NC1=O` [Example 1386] ({CH2CO}-TY(Carboxymethyl)DWY(Carboxymethyl)[Bip]Y(Carboxymethyl)[NMeA][dL]N[Cha]VEC[Dab][AEEA][Aun]-OH; thioether N-14), the IC50 turned out to be 137 nM.

Staying with this test, now noted: PE-labeled PD-L1-Ig 20 nM final, Jurkat-hPD-1 cells; read-out: Jurkat HPD1 PDL1 IC50.
On to `CC(=O)NCCCC[C@@H]1NC(=O)[C@H](C(C)(C)O)NC(=O)[C@H](CC2CCCCC2)NC(=O)[C@H](CCN)NC(=O)[C@@H](CC(C)C)NC(=O)[C@H](C)N(C)C(=O)[C@H](CCCNC(=N)N)NC(=O)[C@H](Cc2ccc(-c3ccccc3)cc2)NC(=O)[C@H](Cc2ccc(C(=O)O)cc2)NC(=O)[C@H](Cc2cccc(C(F)(F)F)c2)NC(=O)[C@H](CC(=O)O)NC(=O)[C@H](Cc2ccc(OCC(=O)O)cc2)NC(=O)[C@H](Cc2ccc(OCC(=O)O)cc2)NC(=O)CSC[C@@H](C(=O)N[C@@H](CCN)C(=O)NCCCCCCCCCCCCC(=O)O)NC1=O` [Example 2600] ({CH2CO}-Y(Carboxymethyl)Y(Carboxymethyl)D[Phe(3-CF3)][Phe(4-COOH)][Bip]R[NMeA][dL][Dab][Cha][Val(3-OH)]K(Ac)C[Dab]-{NH(CH2)12COOH}; thioether N-14), for which the IC50 turned out to be 5.5 nM.

As to `Cc1cccc(C[C@@H]2NC(=O)[C@H](CC(=O)O)NC(=O)[C@H](Cc3ccc(C(=O)O)cc3)NC(=O)[C@H](C(C)O)NC(=O)CSC[C@@H](C(=O)N[C@@H](CCN)C(=O)NCCOCCOCC(=O)NCCCCCCCCCCC(=O)O)NC(=O)[C@H](CO)NC(=O)[C@H](C(C)(C)O)NC(=O)[C@H](CC3CCCCC3)NC(=O)[C@H](CCN)NC(=O)[C@@H](CC(C)C)NC(=O)[C@H](C)N(C)C(=O)[C@H](Cc3ccc(C(=O)O)cc3)NC(=O)[C@H](Cc3ccc(-c4ccccc4)cc3)NC(=O)[C@H](Cc3ccc(C(=O)O)cc3)NC2=O)c1` (stereo partly drawn) [Example 2562] ({CH2CO}-[Thr(3ξ)][Phe(4-COOH)]D[Phe(3-Me)][Phe(4-COOH)][Bip][Phe(4-COOH)][NMeA][dL][Dab][Cha][Val(3-OH)]SC[Dab][AEEA][Aun]-OH; thioether N-14), the IC50 came out at 2.1 nM.

Consider `CC(C)C[C@@H]1NC(=O)[C@H](Cc2c[nH]c3ccccc23)NC(=O)[C@H](CC(=O)O)NC(=O)[C@H](Cc2ccc(OCC(=O)O)cc2)NC(=O)[C@H](Cc2ccsc2)NC(=O)CSC[C@@H](C(=O)N[C@@H](CCN)C(=O)NCCOCCOCC(=O)NCCCCCCCCCCC(=O)O)NC(=O)[C@H](CCC(=O)O)NC(=O)[C@H](C(C)(C)O)NC(=O)[C@H](CC2CCCCC2)NC(=O)[C@H](CCN)NC(=O)[C@@H](CC(C)C)NC(=O)[C@H](C)N(C)C(=O)[C@H](CCC(N)=O)NC(=O)[C@H](Cc2ccc(-c3ccccc3)cc2)NC1=O` [Example 2504] ({CH2CO}-[3Thi]Y(Carboxymethyl)DWL[Bip]Q[NMeA][dL][Dab][Cha][Val(3-OH)]EC[Dab][AEEA][Aun]-OH; thioether N-14), for which the IC50 was 13.2 nM.

In the case of `CC(=O)NCCCC[C@@H]1NC(=O)[C@H](C(C)(C)O)NC(=O)[C@H](CC2CCCCC2)NC(=O)[C@H](CCN)NC(=O)[C@@H](CC(C)C)NC(=O)[C@H](C)N(C)C(=O)[C@H](CCCNC(=N)N)NC(=O)[C@H](Cc2ccc(-c3ccccc3)cc2)NC(=O)[C@H](Cc2ccc(C(=O)O)cc2)NC(=O)[C@H](Cc2cccc(C(F)(F)F)c2)NC(=O)[C@H](CC(=O)O)NC(=O)[C@H](Cc2ccc(OCC(=O)O)cc2)NC(=O)[C@H](Cc2ccc(OCC(=O)O)cc2)NC(=O)CSC[C@@H](C(=O)N[C@@H](CCN)C(=O)NCCCCCCCCCCCCC(=O)O)NC1=O` [Example 2638] ({CH2CO}-Y(Carboxymethyl)Y(Carboxymethyl)D[Phe(3-CF3)][Phe(4-COOH)][Bip]R[NMeA][dL][Dab][Cha][Val(3-OH)]K(Ac)C[Dab]-{NH(CH2)12COOH}; thioether N-14), the IC50 was determined as 9.1 nM.

As for `CC(C)C[C@H]1NC(=O)[C@H](C)N(C)C(=O)[C@H](Cc2ccc(C(=O)O)cc2)NC(=O)[C@H](Cc2ccc(-c3ccccc3)cc2)NC(=O)[C@H](Cc2ccc(C(=O)O)cc2)NC(=O)[C@H](Cc2cccc(C(F)(F)F)c2)NC(=O)[C@H](CC(=O)O)NC(=O)[C@H](Cc2ccc(C(=O)O)cc2)NC(=O)[C@H](C(C)O)NC(=O)CSC[C@@H](C(=O)N[C@@H](CCN)C(=O)NCCCCCCCCCCC(=O)O)NC(=O)[C@H](CO)NC(=O)[C@H](C(C)(C)O)NC(=O)[C@H](CC2CCCCC2)NC(=O)[C@H](CCN)NC1=O` (stereo partly drawn) [Example 2567] ({CH2CO}-[Thr(3ξ)][Phe(4-COOH)]D[Phe(3-CF3)][Phe(4-COOH)][Bip][Phe(4-COOH)][NMeA][dL][Dab][Cha][Val(3-OH)]SC[Dab][Aun]-OH; thioether N-14), the IC50 was 2.2 nM.
